Measured values taken from ChEMBL document CHEMBL3785048, “Effects of polar receptor agonists designed for the periphery on ATP-induced Ca2+release from keratinocytes” (Medchemcomm, 2016).
Activity calls are given as the source filed them. No cut-off for these calls is given here.

Columns and labels:
[1] = Distribution coefficient, logD between n-octonol and aqueous PBS buffer at pH 5.4 by LC-MS analysis detection based shake flask method; type: physicochemical; conditions: n-octanol/aqueous PBS buffer
[2] = Distribution coefficient, logD between n-octonol and aqueous MOPS buffer at pH 7.4 by LC-MS analysis detection based shake flask method; type: physicochemical; conditions: n-octanol/aqueous MOPS buffer
[3] = biological target: T1, Kappa-type opioid receptor (Homo sapiens, UniProt P41145); assay: Agonist activity at kappa opioid receptor in ATP stimulated human HaCaT cells assessed as reduction in intracellular Ca2+ release at 1 uM after 45 mins by FURA-2AM dye based luminescence spectrophotometry method; type: functional, cell-based
T1 sequence (P41145 whole entry): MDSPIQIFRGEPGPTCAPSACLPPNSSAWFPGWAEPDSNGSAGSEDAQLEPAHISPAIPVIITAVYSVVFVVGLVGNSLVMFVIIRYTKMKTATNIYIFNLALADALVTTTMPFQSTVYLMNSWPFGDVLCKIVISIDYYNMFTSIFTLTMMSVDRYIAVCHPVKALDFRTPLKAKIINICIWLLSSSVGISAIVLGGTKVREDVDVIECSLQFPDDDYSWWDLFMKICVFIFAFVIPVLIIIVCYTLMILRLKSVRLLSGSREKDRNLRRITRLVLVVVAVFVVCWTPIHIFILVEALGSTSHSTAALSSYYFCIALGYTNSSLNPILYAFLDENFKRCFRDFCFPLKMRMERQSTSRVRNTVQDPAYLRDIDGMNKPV

[4] = biological target: T1, Kappa-type opioid receptor; assay: Agonist activity at human kappa opioid receptor expressed in HEK-293 cells after 45 mins by [35S]GTP-gamma-S binding assay in presence of 10 uM of GDP; type: cell-based, HEK293
[5] = species on record: Sus scrofa; assay: Displacement of [3H]MK-801 from pig N-methyl D-aspartate receptor phencyclidine binding site at 10 uM after 150 min by liquid scintillation counting method
[6] = biological target: Delta-type opioid receptor (Homo sapiens) (UniProt P41143); assay: Displacement of [3H]deltrophine from human delta opioid receptor expressed in CHO-K1 cells at 10 uM after 150 mins by liquid scintillation counting method; type: cell-based
Sequence of Delta-type opioid receptor (Homo sapiens) (P41143 whole entry): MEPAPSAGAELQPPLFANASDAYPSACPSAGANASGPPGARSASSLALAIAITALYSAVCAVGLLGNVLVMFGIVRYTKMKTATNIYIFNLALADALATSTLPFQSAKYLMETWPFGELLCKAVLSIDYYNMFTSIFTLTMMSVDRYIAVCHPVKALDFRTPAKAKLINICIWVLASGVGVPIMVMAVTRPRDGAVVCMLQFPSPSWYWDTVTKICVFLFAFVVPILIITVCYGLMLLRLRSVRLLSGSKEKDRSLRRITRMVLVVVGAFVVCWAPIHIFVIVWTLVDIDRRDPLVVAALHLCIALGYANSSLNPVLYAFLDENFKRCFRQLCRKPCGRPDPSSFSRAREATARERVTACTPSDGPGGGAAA

[7] = tested on: CHO-K1; assay: Selectivity index, ratio of Ki for human mu opioid receptor expressed in CHO-K1 cells to Ki for human kappa opioid receptor expressed on HEK-293 cells; type: cell-based
[8] = tested on: CHO-K1; assay: Selectivity index, ratio of Ki for human delta opioid receptor expressed in CHO-K1 cells to guinea pig kappa opioid receptor; type: cell-based
[9] = biological target: T1, Kappa-type opioid receptor; assay: biochemical; type: cell-based, HEK293
Description: Displacement of [3H]Cl-977 from human kappa opioid receptor expressed on HEK-293 cells by liquid scintillation counting method

[10] = biological target: Sigma non-opioid intracellular receptor 1 (Cavia porcellus) (UniProt Q60492); assay: Displacement of [3H]-(+)-pentazocine from guinea pig Sigma1-receptor at 10 uM after 120 mins by liquid scintillation counting method
Sequence of Sigma non-opioid intracellular receptor 1 (Cavia porcellus) (Q60492 whole entry): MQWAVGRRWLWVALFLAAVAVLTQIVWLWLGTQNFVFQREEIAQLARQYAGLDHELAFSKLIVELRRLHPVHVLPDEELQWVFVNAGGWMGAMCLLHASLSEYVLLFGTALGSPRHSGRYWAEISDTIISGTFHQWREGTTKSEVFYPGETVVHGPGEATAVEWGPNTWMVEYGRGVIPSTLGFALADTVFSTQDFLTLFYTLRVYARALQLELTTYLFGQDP

[11] = tested on: CHO-K1; assay: Selectivity index, ratio of Ki for human delta opioid receptor expressed in CHO-K1 cells to Ki for human kappa opioid receptor expressed on HEK-293 cells; type: cell-based
[12] = tested on: CHO-K1; assay: Selectivity index, ratio of Ki for human mu opioid receptor expressed in CHO-K1 cells to guinea pig kappa opioid receptor; type: cell-based
[13] = biological target: Mu-type opioid receptor (Homo sapiens, UniProt P35372); assay: biochemical; type: cell-based, CHO-K1
Sequence of Mu-type opioid receptor (P35372 whole entry): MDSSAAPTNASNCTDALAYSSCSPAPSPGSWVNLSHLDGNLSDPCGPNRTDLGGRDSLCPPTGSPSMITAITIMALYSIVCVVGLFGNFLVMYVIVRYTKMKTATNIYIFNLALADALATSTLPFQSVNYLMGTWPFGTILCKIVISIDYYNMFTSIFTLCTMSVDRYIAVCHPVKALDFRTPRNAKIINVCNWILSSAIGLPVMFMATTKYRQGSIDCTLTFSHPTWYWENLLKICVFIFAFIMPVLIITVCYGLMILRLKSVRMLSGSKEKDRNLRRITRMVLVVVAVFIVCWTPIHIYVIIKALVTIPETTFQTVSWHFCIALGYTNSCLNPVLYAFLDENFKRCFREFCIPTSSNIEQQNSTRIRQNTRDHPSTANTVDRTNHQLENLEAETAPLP

[14] = biological target: T1, Kappa-type opioid receptor; assay: Agonist activity at human kappa opioid receptor expressed in HEK-293 cells after 45 mins by [35S]GTP-gamma-S binding assay in presence of 10 uM of GDP relative to U-69,593; type: cell-based; conditions: HEK293
[15] = species on record: Rattus norvegicus; assay: Displacement of [3H]DTG from rat sigma2 receptor at 10 uM after 120 mins by liquid scintillation counting method
[16] = biological target: Kappa-type opioid receptor (Cavia porcellus, UniProt P41144); assay: Displacement of [3H]U-69,593 from kappa opioid receptor in guinea pig brain membarnes by liquid scintillation counting method
Sequence of Kappa-type opioid receptor (Cavia porcellus, UniProt P41144) (P41144 whole entry): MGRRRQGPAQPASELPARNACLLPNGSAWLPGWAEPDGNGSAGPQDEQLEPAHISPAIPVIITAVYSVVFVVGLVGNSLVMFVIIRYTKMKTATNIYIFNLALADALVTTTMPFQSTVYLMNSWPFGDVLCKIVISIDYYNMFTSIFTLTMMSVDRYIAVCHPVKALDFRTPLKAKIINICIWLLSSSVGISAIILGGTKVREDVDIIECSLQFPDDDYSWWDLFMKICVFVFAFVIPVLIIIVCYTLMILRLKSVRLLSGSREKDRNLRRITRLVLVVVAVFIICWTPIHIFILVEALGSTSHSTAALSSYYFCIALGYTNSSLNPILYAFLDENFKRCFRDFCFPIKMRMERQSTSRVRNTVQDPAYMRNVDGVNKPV

| Compound | logD [1] | logD [2] | inhibition [3] | EC50 [4] | inhibition [5] | inhibition [6] | Ratio Ki [7] | Ratio Ki [8] | Ki [9] | inhibition [10] | Ratio Ki [11] | Ratio Ki [12] | Ki [13] | Intrinsic activity [14] | inhibition [15] | Ki [16] |
| --- | --- | --- | --- | --- | --- | --- | --- | --- | --- | --- | --- | --- | --- | --- | --- | --- |
| COC(=O)N1CCN(C(=O)Cc2ccc(Cl)c(Cl)c2)C2C(N3CCCC3)CCCC21 (stereo not drawn) | 0.39 | 1.29 | – | – | – | – | – | – | – | – | – | – | – | – | – | – |
| CN(C(=O)/C=C/c1ccoc1)[C@@H]1CC[C@@]2(O)[C@H]3Cc4ccc(O)c5c4[C@@]2(CCN3CC2CC2)[C@H]1O5 | – | – | 40% | – | – | – | – | – | – | – | – | – | – | – | – | – |
| O=C(Cc1ccc(Cl)c(Cl)c1)N1CCNC2CCCC(N3CCC(O)C3)C21 (mixture of isomers) | -2.47 | 0.23 | – | – | – | – | – | – | – | – | – | – | – | – | – | – |
| COC(=O)N1CCN(C(=O)Cc2ccc(Cl)c(Cl)c2)C2C(N3CCC(O)C3)CCCC21 (mixture of isomers) | 0.04 | 1.31 | Active | 79 nM | – | – | – | – | – | – | – | – | – | – | – | – |
| O=C(Cc1ccc(Cl)c(Cl)c1)N1CCN(Cc2cccnc2)C2CCCC(N3CCC(O)C3)C21 (mixture of isomers) | -0.39 | 1.26 | Active | – | inactive | 35% | 100 | 1000 | 31 nM | 10% | 100 | 1000 | 3480 nM | 100% | 23% | – |
| O=C(Cc1ccc(Cl)c(Cl)c1)N1CCN(Cc2cccnc2)C2CCCC(N3CCCC3)C21 (racemic) | -0.45 | 1.1 | Active | – | inactive | 40% | 100 | > 10000 | 22 nM | 20% | 100 | > 10000 | 2460 nM | 100% | 1% | 0.13 nM |
